Patent US11708381B2, “Inhibitors of androgen receptor signaling” (XAVIER UNIVERSITY OF LOUISIANA, priority 2016, dated 2023)
Like-named read-outs stand apart in the source and are kept apart here.

What was measured:
Assay type in all cases: cell-based
AR [1] = experiment: Downregulation of AR in LNCaP95 cells; conditions: LNCaP95, enzalutamide-resistant prostate cancer cell line (FIG. 10)
AR-V7 [2] = experiment: Downregulation of AR-V7 in LNCaP95 cells; conditions: LNCaP95, enzalutamide-resistant prostate cancer cell line (FIG. 10)
AR [3] = experiment: Downregulation of AR in 22RV1 cells; conditions: 22RV1, enzalutamide-resistant prostate cancer cell line (FIG. 11)
AR-V7 [4] = experiment: Downregulation of AR-V7 in 22RV1 cells; conditions: 22RV1, enzalutamide-resistant prostate cancer cell line (FIG. 11)
LNCaP95 cells = experiment: Antiproliferative activity, resazurin assay, LNCaP95 cells; conditions: enzalutamide-resistant LNCaP95 cells, 72 h, cell proliferation, read-out: IC50 (μM) LCaP95
Protocol: (§1) LNCaP95 and 22RV1 are prostate cancer cell lines that express high level of AR-V7 and other AR-Vs, and are enzalutamide-resistant. LNCaP95 cells were maintained in RPMI1640 medium with charcoal-stripped serum (CSS). 22Rv1 cells were maintained in RPMI1640 medium with 10% FBS. Cells were seeded in 96-well plates (5×10^3 cells/well) containing 50 μL growth medium for 24 hrs. After medium removal, 100 μL fresh medium containing individual compound at different concentrations was added to each well and incubated at 37° C. for 72 h. Then 20 μL of resazurin was added for 2 h before recording fluorescence at 560 nm (excitation) and 590 nm (emission) using a Victor microtiter plate fluorometer (Perkin-Elmer, USA). The IC50 was defined as the compound concentration required for inhibiting cell proliferation by 50%, in comparison with cells treated with the maximum amount of DMSO (0.25%) and considered as 100% viability.

22RV1 cells = experiment: Antiproliferative activity, resazurin assay, 22RV1 cells; conditions: for Inhibitory rate at 10^−6 M in 22RV1 cells: 72 h incubation; for IC50: enzalutamide-resistant 22RV1 cells, 72 h, cell proliferation
Protocol: as §1

Compound: O=C(Nc1ccc(C(F)(F)F)c(C(F)(F)F)c1)c1cc(F)ccc1O [ARi 4]
- downregulation of AR (AR [1]): dose-dependent downregulation
- downregulation of AR-V7 (AR-V7 [2]): dose-dependent downregulation
- downregulation of AR (AR [3]): dose-dependent downregulation
- downregulation of AR-V7 (AR-V7 [4]): dose-dependent downregulation

Compound: Niclosamide [reference compound]
- IC50 (LNCaP95 cells): 0.372 µM
- Inhibitory rate at 10^−6 M in 22RV1 cells (22RV1 cells): 51.3%
- IC50 (22RV1 cells): 0.284 µM
- downregulation of AR (AR [3]): dose-dependent downregulation

Compound: O=C(Nc1ccc([N+](=O)[O-])cc1F)c1cc(F)ccc1O
- IC50 (LNCaP95 cells; LNCaP-95): 0.206 µM
- Inhibitory rate at 10^−6 M in 22RV1 cells (22RV1 cells): 43.9%
- IC50 (22RV1 cells; Homo sapiens): 0.244 µM

Compound: O=C(Nc1ccc(C(F)(F)F)cc1F)c1cc(F)ccc1O
- IC50 (LNCaP95 cells; LNCaP-95): 0.152 µM
- Inhibitory rate at 10^−6 M in 22RV1 cells (22RV1 cells): 12.4%
- IC50 (22RV1 cells; Homo sapiens): 0.121 µM

Compound: O=C(Nc1ccc(C(F)(F)F)cc1F)c1cc(F)c(F)cc1O
- IC50 (LNCaP95 cells; LNCaP-95): 0.199 µM
- Inhibitory rate at 10^−6 M in 22RV1 cells (22RV1 cells): 52.7%
- IC50 (22RV1 cells; Homo sapiens): 0.382 µM

Compound: O=C(Nc1ccc(C(F)(F)F)cc1Cl)c1cc(F)ccc1O
- IC50 (LNCaP95 cells; LNCaP-95): 0.148 µM
- Inhibitory rate at 10^−6 M in 22RV1 cells (22RV1 cells): 14.5%
- IC50 (22RV1 cells; Homo sapiens): 0.135 µM

Compound: N#Cc1cc(NC(=O)c2cc(F)ccc2O)ccc1C(F)(F)F
- IC50 (LNCaP95 cells; LNCaP-95): 0.161 µM
- Inhibitory rate at 10^−6 M in 22RV1 cells (22RV1 cells): 21.8%
- IC50 (22RV1 cells; Homo sapiens): 0.195 µM

Compound: N#Cc1ccc(NC(=O)c2cc(F)ccc2O)c(F)c1
- IC50 (LNCaP95 cells; LNCaP-95): 0.397 µM
- Inhibitory rate at 10^−6 M in 22RV1 cells (22RV1 cells): 55.3%
- IC50 (22RV1 cells; Homo sapiens): 0.414 µM

Compound: O=C(Nc1ccc(C(F)(F)F)c(C(F)(F)F)c1)c1cc(F)ccc1O [drawing 30]
- IC50 (LNCaP95 cells; LNCaP-95): 0.13 µM
- Inhibitory rate at 10^−6 M in 22RV1 cells (22RV1 cells): 15.7%
